Reference: patent US20240400591A1 (Jacobio Pharmaceuticals Co., Ltd., priority 2021, published 2024)
Where two headings read alike, the source gives them in different places.

Key:
[1] = system: NUGC-3_P53_Luc single clonal cell line (p53 Y220C); test: Reporter gene assay (p53 RE luciferase); type: cell-based
Protocol: NUGC-3_P53_Luc single clonal cell line was established using pGL4.38[luc2P/p53 RE/Hygro] Vector (E365A, promega). NUGC-3_P53-Luc single clonal cells were cultured in 37° C. cell incubator before use. NUGC-3-P53-Luc cells were collected and washed twice with PBS to remove phenol red and then resuspended in medium to a proper concentration. Tested compound dilutions were transferred into 384 well assay plates (PerkinElmer). A desired number of cells was seeded into the assay plate and cultured for 6 hours at 37° C. cell incubator. Britelite plus Luciferase Assay Reagent were added into each well and the luminescence value was recorded on Envision. The percent of activity value of compounds treated wells was normalized between high control and low control. Wells containing cells and Ref-1a (10 μM) sewved as high control, and wells containing cells and same percentage of DMSO sewved as low control. Activity value (%)=(Luminescence readoutCompound treated−Luminescence readoutLow control)/(Luminescence readoutHigh control−Luminescence readoutLow control)*100%. Then the data were analyzed either by fitting a 4-parameter logistic model or by Excel to calculate EC50 values and the EC50 was the concentration at 50% Activity on the curve.

[2] = system: NUGC4 (P53 WT); test: Cell viability assay (CellTiter-Glo, 6 days), NUGC4; type: cell-based
Protocol: (§1) Cells were collected and counted. A desired number of cells was seeded into 96-well microplate and cultured in 37° C. cell incubator overnight. Compounds dissolved in cell culture medium were added into cell plate and cultured for 6 days. After balancing CellTiter-Glo reagent and cells at room temperature for 30 min, equal volume of CellTiter-Glo reagents was added to assay plate and shaken for 2 min for cell lysis. The cells were balanced at room temperature for 10 minutes and Luminescence signal was read using Envision. The percent of cell viability for compounds treated wells were normalized between High control and low control. Wells containing cell culture medium and same percentage DMSO sewved as Low control. Wells containing cells and same percentage DMSO sewved as High control. Cell viability (%)=(Luminescence readoutCompound treated−Luminescence readoutLow control)/(Luminescence readoutHigh control−Luminescence readoutLow control)*100%. Then the data were analyzed either by fitting a 4-parameter logistic model or by Excel to calculate IC50 values. And the IC50 was the concentration at 50% Cell viability on the curve.

[3] = molecular target: T1, His-p53 Y220C (94-294) protein (Homo sapiens, UniProt P04637, Y220C); test: In vitro DNA binding assay (HTRF); type: biochemical; details: % activation normalized to 2 μM Ref-1a high control
T1 construct: His-p53 Y220C (94-294) protein

[4] = system: NUGC3 (P53 Y220C); test: Cell viability assay (CellTiter-Glo, 6 days), NUGC3; type: cell-based
Protocol: as §1

[5] = Homo sapiens, NUGC-3, 6 h, luciferase reporter, 6 hours, normalized to Ref-1a (10 μM) high control, read-out: p53(Y220C)_NUGC-3 EC50
[6] = Homo sapiens, NUGC-4, 144 h, cell viability, 6 days, CellTiter-Glo, read-out: NUGC4 (P53 WT) IC50
[7] = Homo sapiens, NUGC-3, 144 h, cell viability, 6 days, CellTiter-Glo, read-out: NUGC3 (P53 Y220C) IC50
[8] = Homo sapiens, NUGC-3, luciferase reporter, 6 hours, normalized to Ref-1a (10 μM) high control, read-out: p53(Y220C)_NUGC-3 EC50
[9] = Homo sapiens, NUGC-3, 6 h, read-out: p53(Y220C)_NUGC-3 EC50 (μM)
[10] = Homo sapiens, NUGC-4, 144 h, read-out: NUGC4 (P53 WT) IC50 (μM)
[11] = Homo sapiens, NUGC-3, 144 h, read-out: NUGC3 (P53 Y220C) IC50 (μM)

Structure (SMILES)	EC50 [1, 5]	IC50 [2, 6]	EC50 [3]	IC50 [4, 7]	EC50 [1, 8]	EC50 [1, 9]	IC50 [2, 10]	IC50 [4, 11]	EC50 ([1]; luciferase reporter, 6 hours, normalized to Ref-1a (10 μM) high control, read-out: p53(Y220C)_NUGC-3 EC50)	IC50 ([2]; cell viability, 6 days, CellTiter-Glo, read-out: NUGC4 (P53 WT) IC50)	IC50 ([4]; cell viability, 6 days, CellTiter-Glo, read-out: NUGC3 (P53 Y220C) IC50)
CN1CC[C@@H](Nc2cccc3c(CC(F)(F)F)c(C#CCNc4ccc(P(C)(C)=O)cc4C#N)sc23)[C@@H](F)C1 [Example 211, 5-(dimethylphosphoryl)-2-((3-(7-(((3S,4R)-3-fluoro-1-methylpiperidin-4-yl)amino)-3-(2,2,2-trifluoroethyl)benzo[b]thiophen-2-yl)prop-2-yn-1-yl)amino)benzonitrile]	0.22 µM	11.3 µM	52 nM	1.07 µM							
CNC(=O)c1ccc(NCC#Cc2cc3c(N[C@H]4CCN(C)C[C@H]4F)cccc3n2CC(F)(F)F)c(OC)c1 [Example 111, 4-((3-(4-(((3R,4S)-3-fluoro-1-methylpiperidin-4-yl)amino)-1-(2,2,2-trifluoroethyl)-1H-indol-2-yl)prop-2-yn-1-yl)amino)-3-methoxy-N-methylbenzamide]	0.16 µM	13.1 µM	101 nM	1.84 µM							
COc1cc(P(C)(C)=O)ccc1NCC#Cc1sc2c(NC3C4CCC3CN(C)C4)cccc2c1CC(F)(F)F (stereo not drawn) [Example 124, (3-methoxy-4-((3-(7-((3-methyl-3-azabicyclo[3.2.1]octan-8-yl)amino)-3-(2,2,2-trifluoroethyl)benzo[b]thiophen-2-yl)prop-2-yn-1-yl)amino)phenyl)dimethylphosphine oxide]		7.23 µM	143 nM	2.31 µM	0.47 µM						
COc1cc(P(C)(C)=O)ccc1NCC#Cc1sc2c(NC3CCN(CCCF)CC3)cccc2c1CC(F)(F)F [Example 205, (4-((3-(7-((1-(3-fluoropropyl)piperidin-4-yl)amino)-3-(2,2,2-trifluoroethyl)benzo[b]thiophen-2-yl)prop-2-yn-1-yl)amino)-3-methoxyphenyl)dimethylphosphine oxide]		4.1 µM	65 nM	1.32 µM	0.55 µM						
CN1CC[C@@H](Nc2cccc3c(CC(F)(F)F)c(C#CCNc4ccc(P(C)(C)=O)cc4S(C)(=O)=O)sc23)[C@@H](F)C1 [Example 175, (4-((3-(7-(((3S,4R)-3-fluoro-1-methylpiperidin-4-yl)amino)-3-(2,2,2-trifluoroethyl)benzo[b]thiophen-2-yl)prop-2-yn-1-yl)amino)-3-(methylsulfonyl)phenyl)dimethylphosphine oxide]		35.2 µM	66 nM	3.55 µM	0.64 µM						
COc1cc(P(C)(C)=O)ccc1NCC#Cc1sc2c(NC3CCN(C)CC34CC4)cccc2c1CC(F)(F)F (stereo not drawn) [Example 89, (3-methoxy-4-((3-(7-((5-methyl-5-azaspiro[2.5]octan-8-yl)amino)-3-(2,2,2-trifluoroethyl)benzo[b]thiophen-2-yl)prop-2-yn-1-yl)amino)phenyl)dimethylphosphine oxide]		4.54 µM	53 nM	0.82 µM	0.23 µM						
COc1cc(P(=O)(C2CC2)C2CC2)ccc1NCC#Cc1sc2c(N[C@@H]3CCN(C)C[C@@H]3F)cccc2c1CC(F)(F)F (racemic) [Example 99, dicyclopropyl(4-((3-(7-(((Z)-3-fluoro-1-methylpiperidin-4-yl)amino)-3-(2,2,2-trifluoroethyl)benzo[b]thiophen-2-yl)prop-2-yn-1-yl)amino)-3-methoxyphenyl)phosphine oxide]			87 nM			0.15 µM	6.58 µM	1.44 µM			
CN1CC[C@@H](Nc2cccc3c(CC(F)(F)F)c(C#CCNc4ccc(P(C)(C)=O)cc4F)sc23)[C@@H](F)C1 [Example 84, (3-fluoro-4-((3-(7-(((3S,4R)-3-fluoro-1-methylpiperidin-4-yl)amino)-3-(2,2,2-trifluoroethyl)benzo[b]thiophen-2-yl)prop-2-yn-1-yl)amino)phenyl)dimethylphosphine oxide]	0.17 µM	11.5 µM	45 nM	1.42 µM							
COCCNC(=O)c1cc(P(C)(C)=O)ccc1NCC#Cc1sc2c(N[C@@H]3CCN(C)C[C@@H]3Cl)cccc2c1CC(F)(F)F [Example 219, 2-((3-(7-(((3S,4R)-3-chloro-1-methylpiperidin-4-yl)amino)-3-(2,2,2-trifluoroethyl)benzo[b]thiophen-2-yl)prop-2-yn-1-yl)amino)-5-(dimethylphosphoryl)-N-(2-methoxyethyl)benzamide]			45 nM			0.09 µM	19.5 µM	0.36 µM			
CN1CC[C@@H](Nc2cccc3c(CC(F)(F)F)c(C#CCNc4ccc(P(C)(C)=O)cc4-c4ncon4)sc23)[C@@H](F)C1 [Example 213, (4-((3-(7-(((3S,4R)-3-fluoro-1-methylpiperidin-4-yl)amino)-3-(2,2,2-trifluoroethyl)benzo[b]thiophen-2-yl)prop-2-yn-1-yl)amino)-3-(1,2,4-oxadiazol-3-yl)phenyl)dimethylphosphine oxide]		9.59 µM	58 nM	0.37 µM	0.22 µM						
CCP(=O)(CC)c1ccc(NCC#Cc2sc3c(N[C@@H]4CCN(C)C[C@@H]4F)cccc3c2CC(F)(F)F)c(OCF)c1 (racemic) [Example 66, diethyl(4-((3-(7-(((Z)-3-fluoro-1-methylpiperidin-4-yl)amino)-3-(2,2,2-trifluoroethyl)benzo[b]thiophen-2-yl)prop-2-yn-1-yl)amino)-3-(fluoromethoxy)phenyl)phosphine oxide]		10.3 µM	60 nM	0.82 µM	0.12 µM						
CN1CCC(Nc2cccc3c(CC(F)(F)F)c(C#CCNc4ccc(P(C)(C)=O)cc4OC(F)(F)F)sc23)C(F)C1 (stereo not drawn) [Example 65, (4-((3-(7-(((Z)-3-fluoro-1-methylpiperidin-4-yl)amino)-3-(2,2,2-trifluoroethyl)benzo[b]thiophen-2-yl)prop-2-yn-1-yl)amino)-3-(trifluoromethoxy)phenyl)dimethylphosphine oxide]			46 nM						0.12 µM	10 µM	1.56 µM
COc1cc(P2(=O)CCCC2)ccc1NCC#Cc1sc2c(N[C@@H]3CCN(C)C[C@@H]3F)cccc2c1CC(F)(F)F [Example 117, 1-(4-((3-(7-(((3S,4R)-3-fluoro-1-methylpiperidin-4-yl)amino)-3-(2,2,2-trifluoroethyl)benzo[b]thiophen-2-yl)prop-2-yn-1-yl)amino)-3-methoxyphenyl)phospholane 1-oxide]			34 nM			0.17 µM	8.54 µM	0.93 µM			
COc1cc(P(C)(C)=O)ccc1NCC#Cc1sc2c(NC3CCN(C4CCOCC4)CC3)cccc2c1CC(F)(F)F [Example 154, (3-methoxy-4-((3-(7-((1-(tetrahydro-2H-pyran-4-yl)piperidin-4-yl)amino)-3-(2,2,2-trifluoroethyl)benzo[b]thiophen-2-yl)prop-2-yn-1-yl)amino)phenyl)dimethylphosphine oxide]		4.19 µM	67 nM	1.89 µM	0.41 µM						
COc1cc(P(C)(C)=O)ccc1NCC#Cc1sc2c(N[C@@H]3CCN(C4CCCCOC4)C[C@@H]3F)cccc2c1CC(F)(F)F (stereo partly drawn) [Example 185, (4-((3-(7-(((3S,4R)-3-fluoro-1-(oxepan-3-yl)piperidin-4-yl)amino)-3-(2,2,2-trifluoroethyl)benzo[b]thiophen-2-yl)prop-2-yn-1-yl)amino)-3-methoxyphenyl)dimethylphosphine oxide]		2.79 µM	54 nM	0.88 µM	0.11 µM						
